Where only a bound is given, the exact number is not on record here.

Assay [1] has as its target FABP5 (Homo sapiens (Human), UniProt Q01469). The assay can be described thus: FABP5 fluorescent probe displacement binding assay. As to conditions: for Ki: average ± S.E. of at least three independent experiments; for FABP3 Ki/FABP5 Ki: selectivity ratio FABP3 over FABP5.
The target in assay [2] is FABP3 (Homo sapiens (Human), UniProt P05413). Briefly: FABP3 fluorescent probe displacement binding assay. The settings on record: average ± S.E. of at least three independent experiments.
Chain of FABP3 (P05413 whole entry): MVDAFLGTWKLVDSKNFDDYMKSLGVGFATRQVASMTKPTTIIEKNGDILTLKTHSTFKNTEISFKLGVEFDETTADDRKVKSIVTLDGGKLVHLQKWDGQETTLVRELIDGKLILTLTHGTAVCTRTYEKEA
The target in assay [3] is FABP7 (Homo sapiens (Human), UniProt O15540). Briefly: FABP7 fluorescent probe displacement binding assay. As to conditions: average ± S.E. of at least three independent experiments.
Chain of FABP7 (O15540 whole entry): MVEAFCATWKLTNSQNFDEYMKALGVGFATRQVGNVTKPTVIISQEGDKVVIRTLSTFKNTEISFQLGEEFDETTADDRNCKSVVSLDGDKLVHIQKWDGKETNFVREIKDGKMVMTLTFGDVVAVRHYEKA
Assay [4] relates to PC-3 (human metastatic prostate cancer) cells. The assay can be described thus: Cytotoxicity (MTT) assay, PC-3 (Example 5). Format: cell-based. As to conditions: 72-hour incubation, 1% FBS, read-out: PC3 IC50.
For assay [5], the system named is HepG2 (human liver cancer) cells. Briefly: Cytotoxicity (MTT) assay, HepG2 (Example 5). Format: cell-based. As to conditions: 72-hour incubation, 1% FBS.
Assay [6] has as its system WI-38 (human normal lung fibroblast) cells. Briefly: Cytotoxicity (MTT) assay, WI-38 (Example 5). The settings on record: 72-hour incubation, 1% FBS. Type of assay: cell-based.

Chain of FABP5 (Q01469 whole entry): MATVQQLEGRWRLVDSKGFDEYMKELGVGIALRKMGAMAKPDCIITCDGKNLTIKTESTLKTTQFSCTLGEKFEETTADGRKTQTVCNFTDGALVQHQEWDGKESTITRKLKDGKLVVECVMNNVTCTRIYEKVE

Turning to `O=C(O)[C@@H]1C(c2ccccc2)[C@@H](C(=O)Oc2ccccc2-c2ccc3c(c2)OCO3)[C@@H]1c1ccccc1` (mixture of isomers) [Compound 1i, (±)-α-3-[2-(benzo[d][1,3]dioxol-5-yl)phenoxycarbonyl]-2,4-di (2-dimethoxyphenyl)cyclobutane-1-dicarboxylic acid], the Ki in assay [1] amounted to 790 ± 180 nM; in assay [2], 1.13 ± 0.15 µM; in assay [3], 320 ± 130 nM. Also, the “FABP3 Ki/FABP5 Ki” value in assay [1] was found to be 1.4.
Consider `COc1ccccc1C1[C@@H](C(=O)O)[C@@H](c2ccccc2OC)[C@@H]1C(=O)Oc1cccc(-c2ccc3c(c2)NC(=O)C3)c1` (mixture of isomers) [Compound 1j, (±)-α-2,4-di (2-methoxyphenyl)-3-[3-(2-oxoindolin-6-yl)phenoxycarbonyl]cyclobutane-1-carboxylic acid], for which the Ki in assay [1] turned out to be 1060 ± 80 nM; in assay [2], 3.29 ± 0.45 µM.
With `COc1ccccc1[C@@H]1[C@H](C(=O)O)[C@@H](c2ccccc2OC)[C@H]1C(=O)Oc1ccc2cc(-c3cncnc3)ccc2c1` (racemic) [Compound 1k, (±)-α-2,4-di (2-methoxyphenyl)-3-[7-(5-pyrimidine)naphthalen-2-yloxycarbonyl]cyclobutane-1-carboxylic acid], the Ki in assay [1] turned out to be 1300 ± 90 nM; in assay [2], 4.78 ± 0.18 µM; in assay [3], 6360 ± 1040 nM. Moreover, the “FABP3 Ki/FABP5 Ki” value in assay [1] is 3.7.
With `COc1ccccc1C1[C@@H](C(=O)O)[C@@H](c2ccccc2OC)[C@@H]1C(=O)OC1Cc2ccccc2C1` (mixture of isomers) [Compound 1l, (±)-α-3-(2,3-dihydro-1-inden-2-yloxycarbonyl)-2,4-di (2-methoxyphenyl)cyclobutane-1-carboxylic acid], the IC50 is 48.9 µM in assay [4], 45.5 µM in assay [5] and 63.7 µM in assay [6]. For the same compound, the values for the Ki in assay [2] and in assay [3] were 53.8 ± 7.28 µM and 53800 ± 7280 nM, respectively.
As to `COc1ccccc1C1[C@@H](C(=O)O)[C@@H](c2ccccc2OC)[C@@H]1C(=O)Oc1cccc(-c2ccc(C#N)cc2)c1` (mixture of isomers) [Compound 1p, (±)-3-(4′-cyano-1,1′-biphenyl-3-yloxycarbonyl)-2,4-di (2-methoxyphenyl)cyclobutane-1-carboxylic acid], the Ki in assay [1] was found to be 1740 ± 80 nM; in assay [2], 4.64 ± 0.04 µM; in assay [3], 3160 ± 430 nM. Besides, in assay [1], the “FABP3 Ki/FABP5 Ki” value turned out to be 2.7.
In the same order, the values of `COc1ccccc1C1[C@@H](C(=O)O)[C@@H](c2ccccc2OC)[C@@H]1C(=O)Oc1ccccc1-c1ccc2c(c1)OCCO2` (mixture of isomers) [Compound 1s, (±)-α-3-[2-(2,3-dihydrobenzo[b][1,4]dioxin-6-yl)phenoxycarbonyl]-2,4-bis(2-methoxyphenyl)cyclobutane-1-carboxylic acid] are 2810 ± 420 nM, 2.29 ± 0.56 µM, 670 ± 150 nM and 0.8.
The like results for `N#Cc1ccc(-c2ccccc2OC(=O)[C@H]2C(c3ccccc3)[C@@H](C(=O)O)[C@H]2c2ccccc2)cc1` (mixture of isomers) [Compound 2d, (±)-γ-3-(4′-cyano-1,1′-biphenyl]-2-yloxycarbonyl)-2,4-diphenylcyclobutane-1-carboxylic acid] were, in that order, 1390 ± 70 nM, 5.78 ± 1.3 µM, 950 ± 50 nM and 4.1.
The like results for `COc1ccccc1[C@H]1[C@H](C(=O)O)[C@H](c2ccccc2OC)[C@@H]1C(=O)Oc1cccc(-c2ccc(F)cc2)c1` (racemic) [Compound 2e, (±)-γ-3-(4′-fluoro-1,1′-biphenyl-3-yl)oxycarbonyl-2,4-di (2-methoxyphenyl)cyclobutane-1-carboxylic acid] were, in that order, 1770 ± 20 nM, 6.1 ± 1.34 µM, 3590 ± 240 nM and 3.4.
`COc1ccccc1[C@H]1[C@H](C(=O)O)[C@H](c2ccccc2OC)[C@@H]1C(=O)Oc1cccc2ccccc12` (racemic) [Compound 2f, (±)-γ-2,4-di (2-methoxyphenyl)-3-(naphthalen-1-yloxycarbonyl)cyclobutane-1-carboxylic acid]: the Ki in assay [2] is 1.66 ± 0.45 µM; in assay [3], 1450 ± 520 nM.
For the compound `COc1ccccc1C1[C@@H](C(=O)O)[C@@H](c2ccccc2OC)[C@H]1C(=O)Oc1cccc(-c2ccc(C#N)cc2)c1` (mixture of isomers) [Compound 2g, (±)-γ-3-(4′-cyano-1,1′-biphenyl]-3-yloxycarbonyl)-2,4-di (2-methoxyphenyl)cyclobutane-1-carboxylic acid], the results for the Ki in assay [1], in assay [2] and in assay [3] were 2460 ± 190 nM, 27.9 ± 6.37 µM and 9110 ± 1470 nM, respectively. The “FABP3 Ki/FABP5 Ki” value in assay [1] is listed as 11.3.
In the same order, the values of `COc1ccccc1C1[C@@H](C(=O)O)[C@@H](c2ccccc2OC)[C@H]1C(=O)Oc1cccc(-c2ccc3c(c2)OCCO3)c1` (mixture of isomers) [Compound 2k, (±)-γ-3-[3-(2,3-dihydrobenzo[b][1,4]dioxin-6-yl)phenoxycarbonyl]-2,4-di(2-methoxyphenyl)cyclobutane-1-carboxylic acid] are 3690 ± 650 nM, 8.18 ± 2.67 µM, 5120 ± 320 nM and 2.2.
Take `COc1ccccc1C1[C@@H](C(=O)OC2Cc3ccccc3C2)[C@@H](c2ccccc2OC)[C@H]1C(=O)O` (mixture of isomers) [Compound 2l, (±)-γ-3-(2,3-dihydro-1H-inden-2-yloxycarbonyl)-2,4-bis(2-methoxyphenyl)cyclobutane-1-carboxylic acid]: the Ki in assay [2] is 136 ± 16.4 µM; in assay [3], 5140 ± 270 nM.
`O=C(O)[C@H]1[C@H](c2ccccc2)[C@@H](C(=O)Oc2ccc3cc(-c4cncnc4)ccc3c2)[C@H]1c1ccccc1` (racemic) [Compound 2m, (±)-γ-2,4-diphenyl-3-[6-(pyrimidin-5-yl)naphthalen-2-yloxy)carbonyl]cyclobutane-1-carboxylic acid]: the results for the Ki in assay [1], in assay [2] and in assay [3] were 2560 ± 170 nM, 1.3 ± 0.18 µM and 4190 ± 710 nM, respectively. The “FABP3 Ki/FABP5 Ki” value in assay [1] worked out at 0.51.
`O=C1CCc2cc(-c3cccc(OC(=O)[C@H]4[C@@H](c5ccccc5)[C@@H](C(=O)O)[C@@H]4c4ccccc4)c3)ccc2N1` (racemic) [Compound 2n, (±)-γ-3-[(3-(2-oxo-1,2,3,4-tetrahydroquinolin-6-yl)phenoxycarbonyl]-2,4-diphenylcyclobutane-1-carboxylic acid]: the Ki stood at 7590 ± 1110 nM in assay [1], 4.07 ± 0.24 µM in assay [2] and 3490 ± 490 nM in assay [3]. The “FABP3 Ki/FABP5 Ki” value in assay [1] was 0.54.
In the same order, the values of `O=C(O)[C@H]1[C@H](c2ccccc2)[C@H](C(=O)OCc2cccc3ccccc23)[C@H]1c1ccccc1` [Compound 1r, α-2,4-diphenyl-3-(1-naphthaylmethyl)cyclobutane-1-carboxylic acid] are 2640 ± 10 nM, 51.2 ± 5.71 µM, 10200 ± 1420 nM and 9.0.
The like results for `COc1ccccc1[C@H]1[C@H](C(=O)O)[C@H](c2ccccc2OC)[C@H]1C(=O)OCC1(F)c2ccccc2-c2ccccc21` [Compound 1t] were, in that order, 1830 ± 270 nM, 25.9 ± 2.4 µM, 7720 ± 1200 nM and 14.2.
For the compound `O=C1CCc2ccc(-c3cccc(OC(=O)[C@H]4[C@@H](c5ccccc5)[C@H](C(=O)O)[C@@H]4c4ccccc4)c3)cc2N1` [Compound 1u], the inhibitory constant (Ki) in assay [1] turned out to be 590 ± 80 nM; in assay [2], 7.67 ± 0.71 µM; in assay [3], 330 ± 10 nM. In addition, in assay [1], the “FABP3 Ki/FABP5 Ki” value came out at 13.0.
For `O=C(O)[C@H]1[C@@H](c2ccccc2)[C@H](C(=O)OC2Cc3ccccc3C2)[C@@H]1c1ccccc1` [Compound 1v], the Ki in assay [2] is over 10 µM; in assay [3], 2410 ± 90 nM.
The like results for `O=C(O)[C@H]1[C@H](c2ccccc2)[C@H](C(=O)Oc2cccc3ccccc23)[C@H]1c1ccccc1` [Compound 1x] were, in that order, 2.7 ± 0.42 µM and 450 ± 70 nM.
Consider `O=C(O)[C@H]1[C@H](c2ccccc2)[C@H](C(=O)Oc2ccccc2-c2ccccc2)[C@H]1c1ccccc1` [Compound 1z], for which the affinity in assay [2] corresponds to a Ki of 0.7 ± 0.42 µM.
In the case of `O=C(O)[C@@H]1[C@@H](c2ccccc2)[C@H](C(=O)OC2Cc3ccccc3C2)[C@H]1c1ccccc1` [Compound 3a, (±)-ε-3-[(2,3-dihydro-1H-inden-2-yl)oxycarbonyl]-2,4-diphenylcyclobutane-1-carboxylic acid], the Ki was determined as 4.75 ± 0.57 µM in assay [2] and 2070 ± 90 nM in assay [3].
The like results for `O=C(O)[C@@H]1[C@@H](c2ccccc2)[C@H](C(=O)Oc2cccc(-c3ccccc3)c2)[C@H]1c1ccccc1` [Compound 3b, (±) -ε-3-(1,1′-biphenyl-3-yloxycarbonyl)-2,4-diphenylcyclobutane-1-carboxylic acid] were, in that order, 18.6 ± 0.73 µM and 2150 ± 90 nM.
For the compound `O=C(O)[C@@H]1[C@@H](c2ccccc2)[C@H](C(=O)Oc2cccc(-c3ccc4c(c3)OCCO4)c2)[C@H]1c1ccccc1` [Compound 3d, (±)-ε-3-[3-(2,3-dihydrobenzo[b][1,4]dioxin-6-yl)phenoxycarbonyl]-2,4-diphenylcyclobutane-1-carboxylic acid], the Ki in assay [1] was found to be 3150 ± 280 nM; in assay [2] it was 7.84 ± 0.7 µM; in assay [3], 1490 ± 150 nM. For the same compound, the “FABP3 Ki/FABP5 Ki” value in assay [1] is 2.5.
As for `COc1ccccc1[C@H]1[C@H](C(=O)O)[C@H](c2ccccc2OC)[C@@H]1C(=O)Oc1cccc(-c2ccc(F)cc2)c1` [Compound 3e, ε-2,4-diphenyl-3-(4-fluorophenyl)phenoxycarbonylcyclobutane-1-carboxylic acid], the Ki in assay [1] amounted to 3400 ± 520 nM; in assay [2] it was 15.5 ± 1.91 µM; in assay [3], 2190 ± 40 nM. The “FABP3 Ki/FABP5 Ki” value in assay [1] is 4.7.

The Ki is a dissociation constant, usually derived from enzyme kinetics or from competition with a known ligand. What is called IC50 is the concentration needed to halve the response being measured.

These data come from patent US20230365488A1, “TRUXILLIC ACID MONOESTER-DERIVATIVES AS SELECTIVE FABP5 INHIBITORS AND PHARMACEUTICAL COMPOSITIONS AND USES THEREOF” (The Research Foundation for The State University of New York, priority 2020, published 2023).
